Test [1] deals with LASCPC-01 induced neuroendocrine prostate cancer (NEPC) CDX. Kind of test: In vivo tumor efficacy study 2, LASCPC-01 NEPC CDX. Also on record: species or system Nu/Nu (Balb/c background) mice. The protocol:
Change in animal weight during a study is an additional indicator of tolerability. All animal weights are recorded. Tumor volumes were measured by digital caliper and volume was calculated using the formula [Width^2×Length]/2. All tumor volume measurements are recorded. […] Dose dependent tumor growth inhibition (TGI) was evident by observation.
50 and 80 mg/kg groups had mice drop from study starting on day 5.

In a further test the test system is C4-2B. Kind of test: 2D CellTiter-Glo cell viability assay. It is filed as cell-based. How it is done:
CellTiter-Glo® 2.0 Luminescent cell viability assay reagent was purchased from Promega and 22Rv1, LASCPC-01, C4-2, C4-2B and NCI-H660, DU-145, PC-3 and LNCap cell lines were obtained from ATCC and a clinical core facility at Huntsman Cancer Institute. […] The results of cell viability were obtained and IC50 values were calculated (see Table 5, below) showing sub-micromolar cell killing of these prostate cancer cells.
(In general: In ATP-based viability assays light output follows the ATP content of the culture.)

The target of a further test is T1, CDK9/CycT1 (Homo sapiens, UniProt P50750).
T1 construct: purchased SignalChem
Kind of test: ADP-Glo kinase assay. It is filed as biochemical. How it is done:
ADP-Glo assay kit was purchased from Promega and the CDK9/CycT1 protein and PDKtide substrate were purchased from SignalChem. […] The reaction was started by pre-incubating 4 μL of protein (20 nM), 2 μL of substrate (100 μM), and 2 μL of serial diluted drug in 1× assay buffer (50 mM HEPES, 3 mM MgCl2, 3 mM MnCl2, and 1 mM DTT) for 30 minutes. After pre-incubating, 4 μL of ATP (1 μM) was added to each well and incubated for an additional 90 minutes. The ADP-Glo Reagent (10 μL) and Kinase Detection Reagent (20 μL) were added to each well and incubated as recommended by Promega. The reaction was quantified by measuring luminescence and the IC50 was calculated using GraphPad Prism software.

The next test addresses ERK8 (Homo sapiens, UniProt Q8TD08). Kind of test: scanMAX panel and Kd follow-up. It is filed as binding.
The next test deals with 22Rv1. Put plainly: Annexin V/7-AAD apoptosis assay. It is filed as cell-based.
In a further test the target is Haspin (Homo sapiens, UniProt Q8TF76). Kind of test: scanMAX panel and Kd follow-up. It is filed as binding.
Chain of Haspin (Q8TF76 whole entry): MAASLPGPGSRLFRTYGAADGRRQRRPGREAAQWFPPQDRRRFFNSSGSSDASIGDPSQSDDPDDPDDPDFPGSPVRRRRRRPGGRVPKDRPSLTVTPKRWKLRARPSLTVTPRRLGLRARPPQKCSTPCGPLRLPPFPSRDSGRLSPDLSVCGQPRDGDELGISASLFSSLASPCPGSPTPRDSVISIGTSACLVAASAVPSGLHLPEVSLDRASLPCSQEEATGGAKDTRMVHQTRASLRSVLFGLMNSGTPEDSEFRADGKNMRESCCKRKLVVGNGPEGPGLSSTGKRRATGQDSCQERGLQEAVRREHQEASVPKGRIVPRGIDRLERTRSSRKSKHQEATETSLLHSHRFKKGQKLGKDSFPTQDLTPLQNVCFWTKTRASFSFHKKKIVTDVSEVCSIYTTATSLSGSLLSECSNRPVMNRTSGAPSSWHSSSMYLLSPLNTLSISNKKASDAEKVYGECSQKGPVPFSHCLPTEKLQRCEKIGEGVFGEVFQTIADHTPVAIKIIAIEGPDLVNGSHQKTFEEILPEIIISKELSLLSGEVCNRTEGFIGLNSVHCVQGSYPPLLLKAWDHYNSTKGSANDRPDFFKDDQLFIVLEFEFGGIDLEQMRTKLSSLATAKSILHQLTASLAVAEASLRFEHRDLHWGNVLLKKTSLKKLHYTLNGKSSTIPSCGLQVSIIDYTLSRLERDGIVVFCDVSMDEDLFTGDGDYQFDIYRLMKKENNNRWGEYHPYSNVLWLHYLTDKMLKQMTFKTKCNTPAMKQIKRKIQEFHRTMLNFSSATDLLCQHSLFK

Chain of ERK8 (Q8TD08 whole entry): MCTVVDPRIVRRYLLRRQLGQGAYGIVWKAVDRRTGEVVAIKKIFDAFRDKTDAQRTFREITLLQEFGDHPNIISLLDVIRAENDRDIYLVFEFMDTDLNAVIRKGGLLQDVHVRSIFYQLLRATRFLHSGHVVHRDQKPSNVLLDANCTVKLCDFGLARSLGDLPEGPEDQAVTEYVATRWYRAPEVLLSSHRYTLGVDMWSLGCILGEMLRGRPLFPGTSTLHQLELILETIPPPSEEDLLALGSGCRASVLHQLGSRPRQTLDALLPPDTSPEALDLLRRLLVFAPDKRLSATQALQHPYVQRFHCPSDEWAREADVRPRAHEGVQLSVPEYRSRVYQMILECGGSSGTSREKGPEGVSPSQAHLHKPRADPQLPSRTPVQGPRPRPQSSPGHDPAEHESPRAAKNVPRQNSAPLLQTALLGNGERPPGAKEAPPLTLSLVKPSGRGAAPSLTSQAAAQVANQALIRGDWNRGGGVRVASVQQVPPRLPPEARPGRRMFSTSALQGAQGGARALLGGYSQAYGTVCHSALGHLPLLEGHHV
T1 sequence (P50750 whole entry): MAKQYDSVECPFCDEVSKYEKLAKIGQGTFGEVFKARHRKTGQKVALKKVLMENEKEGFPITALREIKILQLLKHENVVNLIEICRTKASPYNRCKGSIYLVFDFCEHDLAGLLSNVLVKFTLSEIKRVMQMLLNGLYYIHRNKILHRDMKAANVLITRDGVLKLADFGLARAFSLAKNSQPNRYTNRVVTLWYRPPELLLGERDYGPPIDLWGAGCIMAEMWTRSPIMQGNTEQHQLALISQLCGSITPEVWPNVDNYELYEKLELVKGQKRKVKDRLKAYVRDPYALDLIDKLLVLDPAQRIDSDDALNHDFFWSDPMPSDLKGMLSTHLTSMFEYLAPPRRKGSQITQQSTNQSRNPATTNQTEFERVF
T1 sequence (O60563 whole entry partner): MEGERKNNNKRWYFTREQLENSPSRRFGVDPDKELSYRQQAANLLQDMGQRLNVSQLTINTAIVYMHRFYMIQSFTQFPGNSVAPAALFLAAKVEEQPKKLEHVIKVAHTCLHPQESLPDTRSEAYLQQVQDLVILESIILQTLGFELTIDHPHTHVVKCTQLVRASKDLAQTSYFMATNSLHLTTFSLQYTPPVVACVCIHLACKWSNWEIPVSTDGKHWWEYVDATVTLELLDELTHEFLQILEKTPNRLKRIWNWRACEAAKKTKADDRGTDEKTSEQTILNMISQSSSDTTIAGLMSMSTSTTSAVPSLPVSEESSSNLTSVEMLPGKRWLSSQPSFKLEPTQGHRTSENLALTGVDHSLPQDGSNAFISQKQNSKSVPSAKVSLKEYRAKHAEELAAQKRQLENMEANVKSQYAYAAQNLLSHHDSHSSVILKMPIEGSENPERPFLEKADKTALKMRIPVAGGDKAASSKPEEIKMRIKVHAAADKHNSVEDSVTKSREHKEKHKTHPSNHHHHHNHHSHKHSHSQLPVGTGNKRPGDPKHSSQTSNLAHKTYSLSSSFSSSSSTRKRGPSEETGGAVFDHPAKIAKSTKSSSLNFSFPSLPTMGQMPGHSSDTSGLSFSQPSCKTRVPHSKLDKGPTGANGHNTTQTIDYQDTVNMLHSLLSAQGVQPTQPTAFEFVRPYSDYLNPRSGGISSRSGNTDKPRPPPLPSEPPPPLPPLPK

Regarding `CC(C)c1c2cc(-c3ccnc(N[C@H]4CC[C@H](N)C4)n3)ccc2nn1C` [Compound I-2, (1S,3S)-[3-[4-(3-isopropyl-2-methylindazol-5-yl)pyrimidin-2-yl]aminocyclopentan-1-yl]-1,3-diamine], the “tumor growth inhibition throughout the course of the study” value in test [1] (LASCPC-01, 50 mg/kg group) was above 80%. Moreover, the “maximal tumor growth inhibition” value in test [1] (LASCPC-01, 50 mg/kg group, early in the study) is given as around 100%. Moreover, in test [1] (LASCPC-01, 80 mg/kg group, day 5), the maximal growth inhibition is recorded as 117%. Also, in test [1] (LASCPC-01, 30, 50, 65, 80 mg/kg), the tumor growth entry is on record as “inhibit tumor growth in a dose dependent manner”. For the same compound, the half-inhibitory concentration (IC50) (as a rule, the point on the concentration scale where inhibition reaches its midpoint) in the test on C4-2B (72 h) is 31 nM; in the test on C4-2B (72 hours) it was 31.9 nM; on CDK9/CycT1 it was below 50 nM. The Kd – broadly, the constant that tells how readily two partners part at equilibrium – at ERK8 (ERK8) came to 5.5 nM; on Haspin it was 2.8 nM. Besides, the remaining binding at 1 µM on ERK8 (ERK8, 1 μM, read-out: % of control activity) lay in the range of 0 to 1%; at Haspin (1 μM, read-out: % of control activity) it was 0 to 1%. Moreover, in the test with 22Rv1 (22Rv1), the “apoptosis by Annexin V/7-AAD staining” value was “increased apoptosis in a dose dependent manner”. For the same compound, in the test with 22Rv1 (22Rv1, treated for 72 hours), the cell death was determined as 71%.

The record behind these values is US20240150322A1, “CDK9 Inhibitors” (Biolexis Therapeutics, Inc., priority 2022, published 2024).
